Experiment [1] can be described thus: Dd2 parasite growth inhibition in erythrocytes – SYBR Green, dry powder samples, set 9, dose response (AID 1159568). The format is functional, cell-based.
The target in experiment [2] is T1, Aspartyl aminopeptidase (Plasmodium falciparum 3D7, UniProt Q8I2J3).
T1 sequence (Q8I2J3 whole entry): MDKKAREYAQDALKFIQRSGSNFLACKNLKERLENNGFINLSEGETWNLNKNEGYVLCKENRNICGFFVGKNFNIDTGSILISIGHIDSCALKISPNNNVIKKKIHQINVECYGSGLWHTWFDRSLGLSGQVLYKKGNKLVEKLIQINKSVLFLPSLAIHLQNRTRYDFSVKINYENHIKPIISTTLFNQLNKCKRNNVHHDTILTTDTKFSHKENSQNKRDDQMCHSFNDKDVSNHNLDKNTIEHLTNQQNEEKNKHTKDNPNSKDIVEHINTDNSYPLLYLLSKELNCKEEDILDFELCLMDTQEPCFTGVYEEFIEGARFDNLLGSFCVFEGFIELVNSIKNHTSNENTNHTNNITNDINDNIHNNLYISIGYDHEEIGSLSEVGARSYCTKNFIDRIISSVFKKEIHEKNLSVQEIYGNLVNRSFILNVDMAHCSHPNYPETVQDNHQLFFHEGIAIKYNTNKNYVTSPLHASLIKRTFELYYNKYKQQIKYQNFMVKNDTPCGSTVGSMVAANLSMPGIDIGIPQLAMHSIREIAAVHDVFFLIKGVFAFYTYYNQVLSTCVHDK
In words: Counterscreen for inhibitors of M1 and M17 aminopeptidases: QFRET-based biochemical high throughput dose response assay for inhibitors of the Plasmodium falciparum M18 Aspartyl Aminopeptidase (PFM18AAP). [Related PubChem assays: 1619 (Screening assay (M17LAP inhibitors).), 1445 (Screening assay (M1AAP inhibitors).)]. Background: A counterscreen serves to expose hits that act by an unwanted route or on another target.

Experiment [3] has as its target Procathepsin L (Homo sapiens, UniProt P07711). The experiment is described as follows: CTSL1 protease inhibition – biochemical, QFRET, 1536-well, counter-screen for M1/M17 aminopeptidase inhibitor project, dose response (AID 2214).
For experiment [4], the target named is T2, Leucine aminopeptidase (Plasmodium falciparum 3D7, UniProt Q8IL11).
T2 sequence (Q8IL11 whole entry): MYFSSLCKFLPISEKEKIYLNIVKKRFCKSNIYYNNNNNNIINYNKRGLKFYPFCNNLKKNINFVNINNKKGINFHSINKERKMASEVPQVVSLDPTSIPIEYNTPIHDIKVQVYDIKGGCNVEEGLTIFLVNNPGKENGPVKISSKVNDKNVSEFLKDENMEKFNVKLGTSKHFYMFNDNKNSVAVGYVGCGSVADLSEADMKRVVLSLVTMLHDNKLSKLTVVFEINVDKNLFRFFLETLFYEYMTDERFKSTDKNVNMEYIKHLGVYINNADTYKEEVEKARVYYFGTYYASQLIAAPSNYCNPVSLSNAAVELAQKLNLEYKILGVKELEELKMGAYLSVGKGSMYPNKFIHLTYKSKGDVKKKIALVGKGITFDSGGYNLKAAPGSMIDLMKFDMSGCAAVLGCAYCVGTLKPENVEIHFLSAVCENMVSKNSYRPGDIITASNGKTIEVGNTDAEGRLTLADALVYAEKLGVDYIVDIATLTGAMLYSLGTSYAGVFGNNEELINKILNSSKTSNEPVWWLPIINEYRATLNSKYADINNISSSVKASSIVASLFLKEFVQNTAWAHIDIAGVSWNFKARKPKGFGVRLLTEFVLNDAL
The experiment is described as follows: P. falciparum M17LAP inhibitors, primary screen, biochemical, fluorogenic H-Leu-NHMec substrate, 1536-well (AID 1619). The format is functional.

Experiment [5] has as its target E3 ubiquitin-protein ligase Mdm2 (Homo sapiens, UniProt Q00987). The experiment is described as follows: MDM2-luc reporter signal enhancers, multi-concentration potency testing, MDM2 ubiquitin-protein ligase inhibitor program, whole-cell format, luminescence detection, 384-well microplate (AID 1394).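 Note: MDM2 E3 inhibitors raise luminescence so EC50 is for signal enhancement.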 The format is functional.
Experiment [6] in a line: HIV-1 Vif–A3G interaction blockers – biochemical, TR-FRET, GST-Vif 1-94, biotin-A3G peptide, dose response retest, primary screen (AID 1117319).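 Note: TR-FRET signal of purified GST-Vif binding a biotinylated A3G peptide; inhibitors lower the FRET signal by blocking Vif and A3G binding.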 The format is functional. For orientation: TR-FRET usually uses a lanthanide donor and a delayed reading to cut background.
The nature of experiment [7]: A cytotoxicity screen of small molecule inhibitors of the PhoP region in Salmonella typhi identified in the primary screen. [Related pubchem assays: 1850, 1864, 1985 ]. The format is functional.
Experiment [8] can be described thus: Late-stage results from the probe development effort to identify antagonists of arginine vasopressin receptor 1a (AVPR1a): fluorescence-based cell-based dose response OXTR inhibition counterscreen assay. The experiment is classed as functional.
Experiment [9] has as its target Vasopressin V2 receptor (Homo sapiens, UniProt P30518). The experiment is described as follows: Late-stage results from the probe development effort to identify antagonists of arginine vasopressin receptor 1a (AVPR1a): fluorescence-based cell-based dose response AVPR2 inhibition counterscreen assay. The format is functional.
In experiment [10] the target is Vasopressin V1b receptor (Homo sapiens, UniProt P47901). In words: Late-stage results from the probe development effort to identify antagonists of arginine vasopressin receptor 1a (AVPR1a): fluorescence-based cell-based dose response AVPR1b inhibition counterscreen assay. The format is functional.
Vasopressin V1b receptor, sequence (P47901 whole entry): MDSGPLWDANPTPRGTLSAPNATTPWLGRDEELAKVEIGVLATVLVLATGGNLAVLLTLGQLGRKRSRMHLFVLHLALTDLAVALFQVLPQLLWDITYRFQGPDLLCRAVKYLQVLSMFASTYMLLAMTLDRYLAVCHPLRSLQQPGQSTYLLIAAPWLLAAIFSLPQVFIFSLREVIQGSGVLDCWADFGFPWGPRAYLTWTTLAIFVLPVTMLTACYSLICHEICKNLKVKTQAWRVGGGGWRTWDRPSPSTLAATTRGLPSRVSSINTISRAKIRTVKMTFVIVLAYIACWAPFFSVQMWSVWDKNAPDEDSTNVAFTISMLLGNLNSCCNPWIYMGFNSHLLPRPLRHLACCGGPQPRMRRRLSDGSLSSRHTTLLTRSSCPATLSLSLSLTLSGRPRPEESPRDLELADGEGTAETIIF
Experiment [11] in a line: Late-stage results from the probe development effort to identify antagonists of arginine vasopressin receptor 1a (AVPR1a): fluorescence-based cell-based dose response AVPR1a inhibition assay. The experiment is classed as functional.
In experiment [12] the target is Paired box protein Pax-8 (Homo sapiens, UniProt Q06710). In words: PAX8 transcriptional activity inhibition in RMG-I – RMG-I cells, luciferase, cherry-pick, dose response (AID 687027).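 Note: luciferase reporter driven by Pax8 target thyroperoxidase promoter measured by SteadyGlo luminescence.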 The experiment is classed as functional, cell-based.
Paired box protein Pax-8, sequence (Q06710 whole entry): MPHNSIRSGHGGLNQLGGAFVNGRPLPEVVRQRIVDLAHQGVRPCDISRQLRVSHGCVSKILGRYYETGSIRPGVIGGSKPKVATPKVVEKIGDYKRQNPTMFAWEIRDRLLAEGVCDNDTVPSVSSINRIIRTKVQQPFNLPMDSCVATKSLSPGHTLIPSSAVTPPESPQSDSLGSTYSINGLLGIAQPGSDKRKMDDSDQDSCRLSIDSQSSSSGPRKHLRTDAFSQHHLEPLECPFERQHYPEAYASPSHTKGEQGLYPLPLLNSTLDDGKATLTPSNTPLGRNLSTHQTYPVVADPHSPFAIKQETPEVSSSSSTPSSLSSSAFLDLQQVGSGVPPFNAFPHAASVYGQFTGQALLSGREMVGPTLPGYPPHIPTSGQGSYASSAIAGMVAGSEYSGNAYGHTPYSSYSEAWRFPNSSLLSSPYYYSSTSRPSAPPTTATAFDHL
Experiment [13] is described as follows: OVCAR8 cell viability loss – plate reader, dry powder samples, PAX8 project, dose response (AID 743197). The format is functional, cell-based. The conditions noted are these: OVCAR-8.
A short description of experiment [14]: IGROV1 cell killing – plate reader, dry powder samples, PAX8 inhibitor project, dose response (AID 743043). The experiment is classed as functional, cell-based. The conditions noted are these: IGROV-1.
Experiment [15] is described as follows: OVCAR-3 cell viability loss – plate reader, dry powder samples, PAX8 inhibitor project, dose response (AID 743044). The format is functional, cell-based.
The nature of experiment [16]: HCT116 cell viability decrease, GSK3B pretreatment – CellTiter-Glo, IC50, dose response (AID 1117339). The experiment is classed as functional. As to conditions: HCT-116. In general terms: ATP-based viability assays read luminescence as a measure of living cells.
The nature of experiment [17]: cytotoxicity toward HT-29 cells – cell-based, CellTiter-Glo luminescence, IC50, dose response (AID 1117330). The format is functional.
For experiment [18], the target named is T3, Cytochrome P450 1A2 (Homo sapiens, UniProt P05177).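 Note: PubChem cytochrome P450 panel assay, CYP1A2 panel member.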
T3 sequence (P05177 whole entry): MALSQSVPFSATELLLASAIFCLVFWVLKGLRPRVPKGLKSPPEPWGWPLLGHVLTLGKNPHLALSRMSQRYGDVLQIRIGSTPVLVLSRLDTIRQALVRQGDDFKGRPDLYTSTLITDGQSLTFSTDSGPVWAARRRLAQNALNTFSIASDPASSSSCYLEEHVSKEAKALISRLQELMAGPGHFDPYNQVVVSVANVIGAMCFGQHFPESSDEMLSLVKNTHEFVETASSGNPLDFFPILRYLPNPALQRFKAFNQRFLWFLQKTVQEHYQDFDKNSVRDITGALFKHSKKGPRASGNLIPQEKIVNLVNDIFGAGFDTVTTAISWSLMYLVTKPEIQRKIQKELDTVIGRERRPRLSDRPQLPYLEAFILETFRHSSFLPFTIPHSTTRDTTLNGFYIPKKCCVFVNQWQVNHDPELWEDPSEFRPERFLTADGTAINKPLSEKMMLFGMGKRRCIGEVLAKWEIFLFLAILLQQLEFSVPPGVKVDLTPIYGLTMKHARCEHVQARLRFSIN

Experiment [19] can be described thus: SNU-C1 cell viability reduction, dose response, CellTiter-Glo luminescence (AID 1117323). The experiment is classed as functional, cell-based.
Experiment [20] in a line: cytotoxicity toward Colo320 cells – cell-based, CellTiter-Glo luminescence, IC50, dose response (AID 1117334). The experiment is classed as functional. The conditions noted are these: COLO 320.
A short description of experiment [21]: IC50 of insulin release inhibition, rat insulinoma INS-1E line, 5 mM glucose, cell-based (AID 1117331). The format is functional.
Experiment [22] in a line: Reduced DLD-1 viability, concentration-response, CellTiter-Glo luminescence (AID 1117352). The experiment is classed as functional.
The nature of experiment [23]: cytotoxicity toward HCT116 cells – cell-based, CellTiter-Glo luminescence, IC50, dose response (AID 1117332). The experiment is classed as functional. As to conditions: HCT-116.
Experiment [24] in a line: RKO cell viability reduction, dose response, CellTiter-Glo luminescence (AID 1117322). The format is functional.
A short description of experiment [25]: CellTiter-Glo luminescence survival assay, SW480 colon tumor line, concentration-response curve, half-maximal inhibitory concentration (AID 1117338). The experiment is classed as functional.
Experiment [26] concerns the target T4, Protein Tat (Human immunodeficiency virus type 1 group M subtype B (isolate HXB2)(HIV-1), UniProt P04608).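 Note: tat binding to TAR RNA read out by fluorescence polarization.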
T4 sequence (P04608 whole entry): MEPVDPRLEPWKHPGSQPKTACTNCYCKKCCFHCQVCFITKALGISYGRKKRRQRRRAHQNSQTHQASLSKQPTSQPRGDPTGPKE
The format is functional.

The structures appear in SMILES notation. Activity calls are given as the source filed them. Where only a bound is given, the exact number is not on record here.

Results on 10 molecules are retold here after ChEMBL document CHEMBL1201862, “PubChem BioAssay data set” (2004).

Vasopressin V2 receptor, sequence (P30518 whole entry): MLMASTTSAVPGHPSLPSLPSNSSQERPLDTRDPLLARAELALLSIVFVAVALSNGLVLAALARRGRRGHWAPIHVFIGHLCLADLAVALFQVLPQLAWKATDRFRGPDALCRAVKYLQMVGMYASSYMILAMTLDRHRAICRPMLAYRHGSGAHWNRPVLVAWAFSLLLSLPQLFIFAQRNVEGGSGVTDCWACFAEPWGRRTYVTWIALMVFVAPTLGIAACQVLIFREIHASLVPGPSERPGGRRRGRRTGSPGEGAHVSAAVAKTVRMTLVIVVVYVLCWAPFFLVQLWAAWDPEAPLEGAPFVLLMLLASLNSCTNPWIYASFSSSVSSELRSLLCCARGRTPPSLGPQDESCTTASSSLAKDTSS
E3 ubiquitin-protein ligase Mdm2, sequence (Q00987 whole entry): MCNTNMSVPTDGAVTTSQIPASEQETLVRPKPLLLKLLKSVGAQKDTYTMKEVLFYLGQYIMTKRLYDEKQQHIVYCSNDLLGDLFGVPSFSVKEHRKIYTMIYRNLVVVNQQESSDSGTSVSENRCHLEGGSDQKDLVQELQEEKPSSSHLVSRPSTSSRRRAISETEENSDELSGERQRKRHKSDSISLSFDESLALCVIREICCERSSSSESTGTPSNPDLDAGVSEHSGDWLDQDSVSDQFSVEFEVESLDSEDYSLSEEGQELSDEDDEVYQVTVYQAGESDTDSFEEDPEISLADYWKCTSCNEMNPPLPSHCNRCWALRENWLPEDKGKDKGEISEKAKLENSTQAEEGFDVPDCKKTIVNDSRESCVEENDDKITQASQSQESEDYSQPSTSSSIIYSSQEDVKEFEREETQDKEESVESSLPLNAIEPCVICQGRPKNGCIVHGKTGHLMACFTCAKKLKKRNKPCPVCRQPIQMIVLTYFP
Procathepsin L, sequence (P07711 whole entry): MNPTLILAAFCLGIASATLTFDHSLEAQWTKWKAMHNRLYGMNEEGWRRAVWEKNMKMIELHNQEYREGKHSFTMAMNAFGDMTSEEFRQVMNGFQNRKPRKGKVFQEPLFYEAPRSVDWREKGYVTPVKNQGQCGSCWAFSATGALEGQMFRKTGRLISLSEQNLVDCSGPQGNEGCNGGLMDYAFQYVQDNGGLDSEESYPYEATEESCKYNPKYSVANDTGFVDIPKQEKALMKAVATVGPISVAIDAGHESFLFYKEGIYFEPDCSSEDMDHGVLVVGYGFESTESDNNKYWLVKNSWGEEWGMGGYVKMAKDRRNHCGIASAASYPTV

Usually AC50 stands for the concentration giving half of the maximal activity seen. For `CN1c2ccc(C#Cc3cccnc3)cc2[C@@H]2[C@@H](CCN2C(=O)c2cccc(F)c2)[C@@H]1CO`, the AC50 in experiment [1] was 4.46 µM (active).

As a reminder, the IC50 is the concentration at which inhibition is half-maximal. Regarding `Cc1cccc(Nc2nnc(SC3CCOC3=O)s2)c1C` (centres undefined), the IC50 in experiment [2] was > 73.5 µM (not active); in experiment [3] it was > 59.6 µM (not active); in experiment [4], 2.23 µM (active).

Usually EC50 stands for the concentration at which the effect is half-maximal. Take `Cc1ccc(C)c(NC(=O)C(Sc2nnc(-c3cccs3)o2)c2ccccc2)c1` (centres undefined): the EC50 in experiment [5] is given as 25 µM (not active).

With `COC(=O)c1ccc(CSc2nc3ccccc3c(=O)n2-c2ccc(OC)c(OC)c2)o1`, the IC50 in experiment [6] was > 100 µM (active). Besides, the EC50 in experiment [7] was > 50 µM (active).

Regarding `O=C(C1CCN(c2ncccc2Cl)CC1)N(CC1CC1)c1ccc(Cl)cc1`, the IC50 in [8] is 1.7 µM (active); in [9] it was 11.3 µM (inactive); in [10], 7.1 µM (active); in [11], 0.0232 µM (active).

For the molecule `Cc1ccnc(N2CCC(C(=O)N(CC3CC3)c3ccc(Cl)cc3)CC2)c1`, the IC50 in experiment [8] is 9.1 µM (active); in [9], 13.6 µM (inactive); in [10], 18.2 µM (inactive); in experiment [11], 0.0052 µM (active).

`Cc1ccc(S(=O)(=O)N(C)C[C@H]2OCCCC[C@H](C)Oc3ccc(NS(=O)(=O)c4ccc(F)cc4)cc3C(=O)N([C@H](C)CO)C[C@@H]2C)cc1`: the AC50 in [12] was 3.32 µM (active); in experiment [13] it was > 70 µM (inactive); in experiment [14], 67.9 µM (active); in experiment [15], 29.3 µM (active).

Regarding `O=C1NCN(c2ccccc2)C12CCN(CCCOc1ccc(F)cc1)CC2` [SPIRAMIDE], the IC50 was 5.33 µM (inactive) in experiment [16]; 2.46 µM (active) in [17]; 0.242 µM (active) in experiment [19]; 11.8 µM (inactive) in [20]; > 33.3 µM (inactive) in [21]; 0.882 µM (active) in experiment [22]. The IC50 in [23] is 8.82 µM (inactive); in experiment [24], 5.31 µM (inactive); in experiment [25], 4.61 µM (active). In experiment [18], the AC50 is 39.8 µM (inconclusive).

Take `CCOc1ccc(Nc2nc3ccccc3n3nnnc23)cc1`: the IC50 in experiment [26] and in [6] was > 100 µM (active) in each case.

As for `N=C(NN=Cc1ccc(Cl)cc1)NN=Cc1ccc(Cl)cc1`, the IC50 in experiment [16] was 0.344 µM (active); in [17], 0.681 µM (active); in experiment [19] it was 0.28 µM (active); in experiment [20] it was 0.458 µM (active); in [22], 0.654 µM (active); in [23], 0.394 µM (active). Further, the values for the IC50 in experiment [24] and in [25] were 0.47 µM (active) and 0.225 µM (active), respectively.
